Consider 19 substances from the OligoGym collection.

HELM strings list units from the 5' end as sugar, base in round brackets, then linkage (d deoxyribose, r ribose, m 2'-O-methyl, p phosphodiester). Strings are as the collection lists them, not checked against the first reports. ss, as = sense and antisense strand; [lna] = locked nucleic acid (LNA); [una] = unlocked nucleic acid; [hna] = hexitol nucleic acid; [s4r] = 4'-thioribose; [fl2r] = 2'-fluoro
Further: test system not given here.

For the series the following is noted: siRNA.
Substance “RNA1{r(U)p.m(U)p.r(A)p.r(A)p.r(G)p.r(G)p.r(A)p.r(G)p.r(A)p.r(A)p.r(G)p.r(C)p.m(U)p.r(G)p.r(A)p.r(C)p.r(G)p.r(G)p.r(C)p.r(T)p.r(T)}|RNA2{r(G)p.r(C)p.r(C)p.r(G)p.r(U)p.m(C)p.r(A)p.r(G)p.r(C)p.r(U)p.r(U)p.r(C)p.r(U)p.r(C)p.r(C)p.r(U)p.m(U)p.r(A)p.r(A)p.r(T)p.r(T)}$$$RNA1{StrandType:ss}|RNA2{StrandType:as}$” yielded a target mRNA knockdown of 67%. The same measure for “RNA1{[s4r](C)p.r(G)p.[s4r](U)p.r(A)p.[s4r](C)p.r(G)p.[s4r](C)p.r(G)p.r(G)p.r(A)p.r(A)p.[s4r](U)p.r(A)p.[s4r](C)p.[s4r](U)p.[s4r](U)p.[s4r](C)p.r(G)p.r(A)p.r(T)p.r(T)}|RNA2{r(U)p.r(C)p.r(G)p.r(A)p.r(A)p.r(G)p.r(U)p.r(A)p.r(U)p.r(U)p.r(C)p.r(C)p.r(G)p.r(C)p.r(G)p.r(U)p.r(A)p.r(C)p.r(G)p.r(T)p.r(T)}$$$RNA1{StrandType:ss}|RNA2{StrandType:as}$”: 92.9%; for “RNA1{[una](U)p.r(G)p.r(A)p.r(A)p.r(U)p.r(C)p.r(A)p.r(G)p.r(A)p.r(A)p.r(G)p.r(A)p.r(U)p.r(G)p.r(A)p.r(A)p.r(G)p.r(U)p.r(C)p.r(A)p.r(A)}|RNA2{[una](G)p.r(A)p.r(C)p.r(U)p.r(U)p.r(C)p.r(A)p.r(U)p.r(C)p.r(U)p.r(U)p.r(C)p.r(U)p.r(G)p.r(A)p.r(U)p.r(U)p.r(C)p.r(A)p.r(A)p.r(G)}$$$RNA1{StrandType:ss}|RNA2{StrandType:as}$”: 0%; for “RNA1{r(G)p.r(C)p.r(G)p.r(A)p.r(G)p.r(C)p.r(A)p.r(G)p.r(A)p.r(G)p.r(A)p.r(A)p.r(U)p.r(C)p.m(U)p.r(A)p.r(C)p.r(C)p.r(U)p.r(T)p.r(T)}|RNA2{r(A)p.r(G)p.r(G)p.m(U)p.r(A)p.r(G)p.r(A)p.r(U)p.r(U)p.r(C)p.r(U)p.r(C)p.r(U)p.r(G)p.r(C)p.r(U)p.r(C)p.r(G)p.r(C)p.r(T)p.r(T)}$$$RNA1{StrandType:ss}|RNA2{StrandType:as}$”: 90%. For the substance “RNA1{m(G)p.m(C)p.m(A)p.m(G)p.m(C)p.m(A)p.m(C)p.m(G)p.m(A)p.m(C)p.m(U)p.m(U)p.m(C)p.m(U)p.m(U)p.m(C)p.m(A)p.m(A)p.m(G)p.r(T)p.r(T)}|RNA2{r(C)p.r(U)p.r(U)p.r(G)p.r(A)p.r(A)p.r(G)p.r(A)p.r(A)p.r(G)p.r(U)p.r(C)p.r(G)p.r(U)p.r(G)p.r(C)p.r(U)p.r(G)p.r(C)p.r(T)p.r(T)}$$$RNA1{StrandType:ss}|RNA2{StrandType:as}$”, the target mRNA knockdown stood at 25%. The substance “RNA1{[lna](G)p.r(C)p.r(U)p.r(G)p.r(A)p.r(C)p.r(C)p.r(C)p.r(U)p.r(G)p.r(A)p.r(A)p.r(G)p.r(U)p.r(U)p.r(C)p.r(A)p.r(U)p.r(C)p.[lna](T)p.[lna](T)}|RNA2{r(G)p.r(A)p.r(U)p.r(G)p.r(A)p.r(A)p.r(C)p.r(U)p.r(U)p.r(C)p.r(A)p.r(G)p.r(G)p.r(G)p.r(U)p.r(C)p.r(A)p.r(G)p.r(C)p.[lna](T)p.[lna](T)}$$$RNA1{StrandType:ss}|RNA2{StrandType:as}$” yielded a target mRNA knockdown of 61%. Consider “RNA1{r(A)p.r(G)p.r(A)p.m(U)p.r(G)p.r(U)p.r(U)p.r(C)p.r(U)p.r(C)p.r(G)p.m(U)p.r(A)p.r(A)p.r(G)p.r(G)p.r(A)p.r(C)p.r(G)p.r(T)p.r(T)}|RNA2{r(C)p.r(G)p.r(U)p.r(C)p.r(C)p.r(U)p.m(U)p.r(A)p.r(C)p.r(G)p.r(A)p.r(G)p.r(A)p.r(A)p.m(C)p.r(A)p.r(U)p.r(C)p.r(U)p.r(T)p.r(T)}$$$RNA1{StrandType:ss}|RNA2{StrandType:as}$”, for which the target mRNA knockdown is 60%.

Regarding “RNA1{r(U)p.r(C)p.r(C)p.r(G)p.r(G)p.r(C)p.[fl2r](U)p.r(A)p.r(A)p.r(C)p.r(U)p.r(C)p.[fl2r](U)p.r(G)p.r(A)p.r(G)p.r(G)p.r(A)p.r(C)p.r(T)p.r(T)}|RNA2{r(G)p.r(U)p.r(C)p.r(C)p.r(U)p.[fl2r](C)p.r(A)p.r(G)p.r(A)p.r(G)p.r(U)p.r(U)p.r(A)p.r(G)p.r(C)p.r(C)p.[fl2r](G)p.r(G)p.r(A)p.r(T)p.r(T)}$$$RNA1{StrandType:ss}|RNA2{StrandType:as}$”, the target mRNA knockdown stood at 85%. As to “RNA1{r(U)p.m(U)p.r(A)p.m(C)p.r(A)p.r(A)p.r(A)p.m(G)p.m(G)p.r(A)p.r(U)p.r(C)p.r(U)p.r(C)p.r(C)p.r(U)p.r(C)p.r(C)p.r(C)p.r(T)p.r(T)}|RNA2{r(G)p.r(G)p.r(G)p.r(A)p.r(G)p.r(G)p.r(A)p.r(G)p.r(A)p.r(U)p.r(C)p.r(C)p.r(U)p.r(U)p.m(U)p.r(G)p.m(U)p.r(A)p.r(A)p.r(T)p.r(T)}$$$RNA1{StrandType:ss}|RNA2{StrandType:as}$”, the target mRNA knockdown came out at 72%. As for “RNA1{r(A)p.r(A)p.r(C)p.r(C)p.r(C)p.r(A)p.r(C)p.r(C)p.r(A)p.r(C)p.r(A)p.r(G)p.r(C)p.m(U)p.r(A)p.r(G)p.r(A)p.r(A)p.r(C)p.m(U)p.m(U)}|RNA2{r(A)p.r(A)p.r(G)p.r(U)p.r(U)p.r(C)p.r(U)p.r(A)p.r(G)p.r(C)p.r(U)p.r(G)p.r(U)p.r(G)p.r(G)p.r(U)p.r(G)p.r(G)p.r(G)p.r(U)p.r(U)}$$$RNA1{StrandType:ss}|RNA2{StrandType:as}$”, the target mRNA knockdown worked out at 81%. For the substance “RNA1{[fl2r](A)p.r(A)p.[fl2r](C)p.r(U)p.[fl2r](C)p.r(U)p.[fl2r](A)p.r(C)p.[fl2r](U)p.r(G)p.[fl2r](U)p.r(G)p.[fl2r](G)p.r(A)p.[fl2r](G)p.r(U)p.[fl2r](C)p.r(G)p.[fl2r](G)p.r(T)p.r(T)}|RNA2{r(C)p.r(C)p.[fl2r](G)p.r(A)p.r(C)p.r(U)p.r(C)p.r(C)p.r(A)p.r(C)p.r(A)p.[fl2r](G)p.r(U)p.r(A)p.[fl2r](G)p.r(A)p.[fl2r](G)p.r(U)p.r(U)p.r(T)p.r(T)}$$$RNA1{StrandType:ss}|RNA2{StrandType:as}$”, the target mRNA knockdown came out at 25%. “RNA1{r(A)p.r(G)p.r(C)p.r(G)p.r(G)p.r(G)p.r(G)p.m(U)p.r(A)p.r(U)p.r(G)p.r(A)p.r(A)p.r(G)p.r(A)p.r(G)p.r(C)p.r(U)p.r(U)p.r(T)p.r(T)}|RNA2{r(A)p.r(A)p.r(G)p.r(C)p.r(U)p.r(C)p.r(U)p.r(U)p.r(C)p.r(A)p.m(U)p.r(A)p.r(C)p.r(C)p.r(C)p.r(C)p.r(G)p.r(C)p.r(U)p.r(T)p.r(T)}$$$RNA1{StrandType:ss}|RNA2{StrandType:as}$” came in with a target mRNA knockdown of 82%. Consider “RNA1{r(C)p.r(G)p.r(U)p.r(A)p.r(C)p.r(G)p.r(C)p.r(G)p.r(G)p.r(A)p.r(A)p.r(U)p.r(A)p.r(C)p.r(U)p.r(U)p.r(C)p.r(G)p.r(A)p.r(T)p.r(T)}|RNA2{[s4r](U)p.[s4r](C)p.[s4r](G)p.[s4r](A)p.r(A)p.r(G)p.r(U)p.r(A)p.r(U)p.r(U)p.r(C)p.r(C)p.r(G)p.r(C)p.r(G)p.[s4r](U)p.[s4r](A)p.[s4r](C)p.[s4r](G)p.r(T)p.r(T)}$$$RNA1{StrandType:ss}|RNA2{StrandType:as}$”, for which the target mRNA knockdown turned out to be 20%. The same measure for “RNA1{r(G)p.r(G)p.r(A)p.m(C)p.m(U)p.r(A)p.m(C)p.m(U)p.r(A)p.r(A)p.m(C)p.m(C)p.m(U)p.m(C)p.m(C)p.r(A)p.r(G)p.m(U)p.m(U)p.r(T)p.r(T)}|RNA2{r(A)p.r(A)p.m(C)p.m(U)p.r(G)p.r(G)p.r(A)p.r(G)p.r(G)p.m(U)p.m(U)p.r(A)p.r(G)p.m(U)p.r(A)p.r(G)p.m(U)p.m(C)p.m(C)p.r(T)p.r(T)}$$$RNA1{StrandType:ss}|RNA2{StrandType:as}$”: 7%; for “RNA1{r(G)p.r(A)p.r(A)p.r(G)p.r(A)p.r(G)p.r(C)p.r(C)p.r(U)p.r(A)p.m(C)p.r(A)p.m(C)p.r(A)p.r(A)p.r(C)p.r(C)p.r(C)p.r(U)p.r(T)p.r(T)}|RNA2{r(A)p.r(G)p.r(G)p.r(G)p.r(U)p.m(U)p.r(G)p.r(U)p.r(G)p.m(U)p.r(A)p.r(G)p.r(G)p.r(C)p.r(U)p.r(C)p.r(U)p.r(U)p.r(C)p.r(T)p.r(T)}$$$RNA1{StrandType:ss}|RNA2{StrandType:as}$”: 74%; for “RNA1{m(G)p.r(A)p.m(U)p.r(A)p.m(C)p.r(U)p.m(U)p.r(C)p.m(U)p.r(G)p.m(G)p.r(U)p.m(U)p.r(C)p.m(C)p.r(C)p.m(U)p.r(C)p.m(C)p.r(T)p.r(T)}|RNA2{r(G)p.r(G)p.r(A)p.r(G)p.r(G)p.r(G)p.r(A)p.r(A)p.r(C)p.r(C)p.r(A)p.r(G)p.r(A)p.r(A)p.r(G)p.r(U)p.r(A)p.r(U)p.r(C)p.r(T)p.r(T)}$$$RNA1{StrandType:ss}|RNA2{StrandType:as}$”: 45%.

The substance “RNA1{r(G)p.r(A)p.r(G)p.[fl2r](U)p.r(A)p.r(U)p.r(U)p.r(U)p.r(C)p.r(C)p.r(G)p.r(C)p.[fl2r](U)p.r(G)p.r(G)p.r(A)p.r(A)p.r(C)p.r(U)p.r(T)p.r(T)}|RNA2{r(A)p.r(G)p.r(U)p.r(U)p.r(C)p.[fl2r](C)p.r(A)p.r(G)p.r(C)p.r(G)p.r(G)p.r(A)p.r(A)p.r(A)p.[fl2r](U)p.r(A)p.r(C)p.r(U)p.r(C)p.r(T)p.r(T)}$$$RNA1{StrandType:ss}|RNA2{StrandType:as}$” registered a target mRNA knockdown of 73%.

Consider “RNA1{r(G)p.r(A)p.r(C)p.r(G)p.[hna](U)p.r(A)p.r(A)p.[hna](A)p.r(C)p.r(G)p.[hna](G)p.r(C)p.r(C)p.[hna](A)p.r(C)p.r(A)p.r(A)p.r(G)p.r(U)p.r(U)p.d(T)}|RNA2{r(A)p.r(C)p.[lna](T)p.r(U)p.r(G)p.[lna](T)p.r(G)p.r(G)p.r(C)p.r(C)p.r(G)p.r(U)p.r(U)p.[lna](T)p.r(A)p.r(C)p.r(G)p.[lna](T)p.r(C)p.[lna](G)p.[lna](C)}$$$RNA1{StrandType:ss}|RNA2{StrandType:as}$”, for which the target mRNA knockdown was 8.9%. “RNA1{r(C)p.r(C)p.r(C)p.r(C)p.r(A)p.r(G)p.r(G)p.m(U)p.r(A)p.r(A)p.r(C)p.r(G)p.r(A)p.r(U)p.r(U)p.r(U)p.r(U)p.r(C)p.r(U)p.r(T)p.r(T)}|RNA2{r(A)p.r(G)p.r(A)p.r(A)p.r(A)p.r(A)p.r(U)p.r(C)p.r(G)p.r(U)p.m(U)p.r(A)p.r(C)p.r(C)p.r(U)p.r(G)p.r(G)p.r(G)p.r(G)p.r(T)p.r(T)}$$$RNA1{StrandType:ss}|RNA2{StrandType:as}$” yielded a target mRNA knockdown of 70%.
